Strand notation (5' to 3'): a small letter for the sugar, then the base; units joined by * are phosphorothioate-linked, units joined directly phosphodiester-linked; [ ] holds rarer units or linkages, { } end groups; capitals alone tell only the bases. e = 2'-O-(2-methoxyethyl) (MOE); [5mC] = 5-methylcytosine; d = 2'-deoxy (DNA)
Columns and labels:
fibrinogen = assay: Fibrinogen assay (Example 45); assay type: in vivo, cynomolgus monkeys; settings: plasma
Procedure: Groups, each consisting of two male and three female monkeys, were injected subcutaneously with ISIS 416838, ISIS 416850, ISIS 416858, ISIS 416864, or ISIS 417002 in escalating doses. Antisense oligonucleotide was administered to the monkeys at 5 mg/kg three times per a week for week 1; 5 mg/kg twice per week for weeks 2 and 3; 10 mg/kg three times per week for week 4; 10 mg/kg twice per week for weeks 5 and 6; 25 mg/kg three times per week for week 7; and 25 mg/kg twice per week for weeks 8, 9, 10, 11, and 12. One control group, consisting of two male and three female monkeys, was injected subcutaneously with PBS according to the same dosing regimen. An additional experimental group, consisting of two male and three female monkeys, was injected subcutaneously with ISIS 416850 in a chronic, lower dose regimen. Antisense oligonucleotide was administered to the monkeys at 5 mg/kg three times per week for week 1; 5 mg/kg twice per week for week 2 and 3; 10 mg/kg three times per week for week 4; and 10 mg/kg twice per week for weeks 5 to 12. Body weights were measured weekly. Blood samples were collected 14 days and 5 days before the start of treatment and subsequently once per week for Factor 11 protein activity analysis in plasma, fibrinogen measurement, PT and aPTT measurements, bleeding times, and measurement of various hematologic factors. On day 85, the monkeys were euthanized by exsanguination while under deep anesthesia, and organs harvested for further analysis.
Nine parts of fresh monkey plasma was collected into one part of trisodium citrate. The samples were evaluated of fibrinogen content using an ACL 9000 coagulation instrument (Instrumentation Laboratory, Italy). The ISIS oligonucleotide, ISIS 416850, given with the chronic dose regimen is distinguished from the other oligonucleotides with an asterisk (*).

[1] = Tolerability in Sprague-Dawley rats: liver function (Example 35); settings: plasma, 50 mg/kg s.c. twice per week for 6 weeks
[2] = Tolerability in CD1 mice: body weight and organ weight (Example 41); settings: 50 mg/kg s.c. twice per week for 6 weeks; for body weight: increase in grams over the PBS control weight taken before the start of treatment; for Kidney weight / Liver weight / Spleen weight: percentage of the body weight
[3] = Tolerability in CD1 mice: liver function, ALT, AST, bilirubin, albumin (Example 33); settings: plasma, 50 mg/kg s.c. twice a week
Procedure: A control group of five mice was injected subcutaneously with PBS for 2 weeks. All experimental groups (i.e. ASO treated mice at 2, 4, 6 weeks) were compared to the control group (i.e. PBS, 2 weeks).
To evaluate the effect of ISIS oligonucleotides on hepatic function, plasma concentrations of transaminases were measured using an automated clinical chemistry analyzer (Hitachi Olympus AU400e, Melville, N.Y.). […] Plasma levels of bilirubin and albumin were also measured using the same clinical chemistry analyzer and expressed in mg/dL.

[4] = Tolerability in Sprague-Dawley rats: liver function (Example 42); settings: 50 mg/kg s.c. twice per week for 6 weeks, plasma
[5] = Tolerability in Sprague-Dawley rats: hematology assays (Example 42); settings: 50 mg/kg s.c. twice per week for 6 weeks, blood
[6] = Tolerability in Sprague-Dawley rats: body weight and organ weight (Example 42); settings: 50 mg/kg s.c. twice per week for 6 weeks; for Change in Kidney weight / Change in Liver weight / Change in Spleen weight: end of study; for Change in body weight: percent increase over the PBS control weight

Question: Which results are given for “ISIS 416850: MOE gapmer, nucleobases 1275 to 1318 of SEQ ID NO: 1 (Table 8) (antisense TGCACAGTTTCTGGCAGGCC; MOE gapmer, wing and gap sizes not given here)”?
Answer: fibrinogen levels (fibrinogen; day 8, chronic dose regimen (*)): 232 mg/dL; fibrinogen levels (fibrinogen; day 8, escalating dose regimen): 281 mg/dL; fibrinogen levels (fibrinogen; day 15, chronic dose regimen (*)): 174 mg/dL; fibrinogen levels (fibrinogen; day 15, escalating dose regimen): 270 mg/dL; fibrinogen levels (fibrinogen; day 22, chronic dose regimen (*)): 192 mg/dL; fibrinogen levels (fibrinogen; day 22, escalating dose regimen): 243 mg/dL; fibrinogen levels (fibrinogen; day 29, chronic dose regimen (*)): 192 mg/dL; fibrinogen levels (fibrinogen; day 29, escalating dose regimen): 234 mg/dL; fibrinogen levels (fibrinogen; day 36, chronic dose regimen (*)): 185 mg/dL; fibrinogen levels (fibrinogen; day 36, escalating dose regimen): 232 mg/dL; fibrinogen levels (fibrinogen; day 43, chronic dose regimen (*)): 194 mg/dL; fibrinogen levels (fibrinogen; day 43, escalating dose regimen): 219 mg/dL; fibrinogen levels (fibrinogen; day 50, chronic dose regimen (*)): 204 mg/dL; fibrinogen levels (fibrinogen; day 50, escalating dose regimen): 215 mg/dL; fibrinogen levels (fibrinogen; day 57, escalating dose regimen): 186 mg/dL; fibrinogen levels (fibrinogen; day 64, escalating dose regimen): 190 mg/dL; fibrinogen levels (fibrinogen; day 71, escalating dose regimen): 178 mg/dL; fibrinogen levels (fibrinogen; day 78, escalating dose regimen): 177 mg/dL; fibrinogen levels (fibrinogen; day 85, escalating dose regimen): 187 mg/dL; fibrinogen levels (fibrinogen; day −5, chronic dose regimen (*)): 227 mg/dL; fibrinogen levels (fibrinogen; day −5, escalating dose regimen): 261 mg/dL; fibrinogen levels (fibrinogen; day −14, chronic dose regimen (*)): 274 mg/dL; fibrinogen levels (fibrinogen; day −14, escalating dose regimen): 310 mg/dL; ALT [1]: 80 IU/L; AST [1]: 5 IU/L; Albumin [1]: 4; Bilirubin [1]: 1 mg/dL; body weight [2]: 11 g; Kidney weight [2]: 1.5%; Liver weight [2]: 6%; Spleen weight [2]: 0.4%; ALT ([3]; 2 weeks): 67 IU/L; AST ([3]; 2 weeks): 72 IU/L; Albumin ([3]; 2 weeks): 3.6; Bilirubin ([3]; 2 weeks): 0.46 mg/dL; ALT ([3]; 4 weeks): 58 IU/L; AST ([3]; 4 weeks): 88 IU/L; Albumin ([3]; 4 weeks): 3.5; Bilirubin ([3]; 4 weeks): 0.23 mg/dL; ALT ([3]; 6 weeks): 102 IU/L; AST ([3]; 6 weeks): 97 IU/L; Albumin ([3]; 6 weeks): 3.1; Bilirubin ([3]; 6 weeks): 0.22 mg/dL

Question: Which ALT [4] does the source give for “ISIS 445522: 5-8-5 or 6-8-6 MOE microwalk gapmer (Table 44) (antisense eG*e[5mC]*eA*e[5mC]*eA*dG*dT*dT*dT*d[5mC]*dT*dG*dG*e[5mC]*eA*eG*eG*e[5mC])” here?
Answer: 240 IU/L

Question: And the AST [4]?
Answer: 138 IU/L

Question: And the Albumin [4]?
Answer: 3.6

Question: And the Bilirubin [4]?
Answer: 0.47 mg/dL

Question: And the body weight [2]?
Answer: 11 g

Question: What about the Kidney weight [2] of the same substance?
Answer: 1.7%

Question: What about the Liver weight [2] of the same substance?
Answer: 6%

Question: What about the Spleen weight [2] of the same substance?
Answer: 0.4%

Question: What about the HCT [5] of the same substance?
Answer: 47%

Question: And the Lymphocyte [5]?
Answer: 84%

Question: What about the Neutrophil [5] of the same substance?
Answer: 13%

Question: What about the Platelets [5] of the same substance?
Answer: 1334 nL⁻¹

Question: And the RBC [5]?
Answer: 7.7 pL⁻¹

Question: And the WBC [5]?
Answer: 18 nL⁻¹

Question: What about the hemoglobin [5] of the same substance?
Answer: 13.6 g/dL

Question: And the monocytes [5]?
Answer: 2.8%

Question: And the “Change in Kidney weight” value [6]?
Answer: +19%

Question: And the “Change in Liver weight” value [6]?
Answer: +26%

Question: And the “Change in Spleen weight” value [6]?
Answer: +184%

Question: What about the “Change in body weight” value [6] of the same substance?
Answer: −13%

Question: Which ALT [4] does the source give for “ISIS 445531: 5-8-5 or 6-8-6 MOE microwalk gapmer (Table 44) (antisense eG*eG*e[5mC]*eA*eT*dT*dG*dG*dT*dG*d[5mC]*dA*d[5mC]*eA*eG*eT*eT*eT)” here?
Answer: 272 IU/L

Question: What about the AST [4] of the same substance?
Answer: 137 IU/L

Question: And the Albumin [4]?
Answer: 3.7

Question: And the Bilirubin [4]?
Answer: 0.12 mg/dL

Question: What about the body weight [2] of the same substance?
Answer: 10 g

Question: And the Kidney weight [2]?
Answer: 1.5%

Question: What about the Liver weight [2] of the same substance?
Answer: 6%

Question: And the Spleen weight [2]?
Answer: 0.5%

Question: What about the HCT [5] of the same substance?
Answer: 50%

Question: What about the Lymphocyte [5] of the same substance?
Answer: 86%

Question: And the Neutrophil [5]?
Answer: 10%

Question: And the Platelets [5]?
Answer: 1023 nL⁻¹

Question: What about the RBC [5] of the same substance?
Answer: 8.8 pL⁻¹

Question: And the WBC [5]?
Answer: 13 nL⁻¹

Question: What about the hemoglobin [5] of the same substance?
Answer: 14.8 g/dL

Question: And the monocytes [5]?
Answer: 2.8%

Question: And the “Change in Kidney weight” value [6]?
Answer: +4%

Question: What about the “Change in Liver weight” value [6] of the same substance?
Answer: +17%

Question: And the “Change in Spleen weight” value [6]?
Answer: +89%

Question: What about the “Change in body weight” value [6] of the same substance?
Answer: −10%
